Assay results from BindingDB's records for doi:10.1016/S0960-894X(00)80679-4 (1993).

Biological target: Gastrin/cholecystokinin type B receptor (Cavia porcellus)
Assay: In vitro binding affinity against Cholecystokinin type B receptor in guinea pig brain membranes

In the case of CCCC[C@H](NC(=O)[C@H](Cc1ccc(OS(=O)(=O)O)cc1)NC(=O)OC(C)(C)C)C(=O)NCC(=O)N[C@H](Cc1c[nH]c2ccccc12)C(=O)N[C@@H](CCCC)C(=O)N[C@@H](CC(=O)O)C(=O)NCCc1ccccc1 [(S)-3-{(S)-2-[(R)-2-(2-{(S)-2-[(S)-2-tert-Butoxycarbonylamino-3-(4-sulfooxy-phenyl)-propionylamino]-hexanoylamino}-acetylamino)-3-(1H-indol-3-yl)-propionylamino]-hexanoylamino}-N-phenethyl-succinamic acid], the IC50 is reported as 1 µM.
